Counter-ions that a name gives are not always drawn.
What was measured:
[1] = target: Glutamate NMDA receptor; assay: In vitro radioligand binding assay for the N-methyl-D-aspartate glutamate receptor is performed using [3H]MK-801 and rat brain membrane suspensions
[2] = Binding assay for the sigma receptor sites is performed by utilizing [3H]N,N-di-o-tolylguanidine ([3H]DTG) and guinea pig brain membrane suspensions

Structure (SMILES)	Ki [1]	IC50 [2]
CCc1cccc(NC(=N)Nc2ccccc2CC)c1	350 nM	–
CCc1cccc(N(C)C(=N)Nc2cccc(Br)c2)c1	81 nM	–
CCc1cccc(N(C)C(=N)Nc2ccccc2C(C)C)c1	564 nM	–
CCc1cccc(NC(=N)Nc2ccc(Cl)cc2Cl)c1	140 nM	–
CCc1cccc(N(C)C(=N)Nc2ccc(Cl)cc2)c1	3340 nM	–
CCc1cccc(NC(=N)Nc2ccccc2C(C)C)c1	230 nM	–
CCc1cccc(N(C)C(=N)Nc2cc(CC)cc(CC)c2F)c1	97 nM	–
CCc1cccc(NC(=N)N(C)c2cc(CC)ccc2Cl)c1	65 nM	–
CCc1cccc(N(C)C(=N)N(C)c2cc(Br)ccc2Br)c1	27 nM	–
CCc1cccc(NC(=N)Nc2cccc(Cl)c2Cl)c1	156 nM	–
CCc1cccc(NC(=N)Nc2cc(C)cc(CC)c2Cl)c1	77 nM	–
CCc1cccc(N(C)C(=N)N(C)c2cc(Cl)ccc2Cl)c1	72 nM	–
CCc1cccc(N(C)C(=N)Nc2ccccc2I)c1	101 nM	–
CCc1cccc(NC(=N)Nc2cc(Cl)cc(Cl)c2)c1	115 nM	–
CCc1cccc(NC(=N)Nc2cccc(CC)c2)c1	129 nM	–
CCc1cccc(NC(=N)Nc2cc(SC)cc(CC)c2Cl)c1	11.8 nM	–
CCc1cccc(NC(=N)Nc2ccc(Cl)c(Cl)c2)c1	204 nM	–
CCc1cccc(NC(=N)Nc2ccc(Cl)cc2)c1	738 nM	–
CCc1cccc(NC(=N)Nc2c(Cl)cccc2Cl)c1	133 nM	–

Structure (SMILES)	Ki [1]	IC50 [2]
CCc1cccc(NC(=N)N(C)c2cccc(CC)c2)c1	–	82 nM
CCc1cccc(N(C)C(=N)Nc2cc(Cl)ccc2Cl)c1	65 nM	–
CCc1cccc(NC(=N)Nc2cccc(Br)c2)c1	51 nM	–
CCc1cccc(N(C)C(=N)N(C)c2cc(CC)ccc2Cl)c1	111 nM	–
CCc1cccc(NC(=N)Nc2ccccc2Cl)c1	249 nM	–
CCc1cccc(N(C)C(=N)Nc2cc(C)cc(CC)c2Cl)c1	78 nM	–
CCc1cccc(N(C)C(=N)Nc2ccc(Cl)c(Cl)c2)c1	1280 nM	–
CCc1cccc(N(C)C(=N)Nc2cccc(SC)c2)c1	6.4 nM	–
CCc1cccc(NC(=N)Nc2cc(CC)cc(CC)c2F)c1	50 nM	–
CCc1cccc(NC(=N)Nc2cc(CC)cc(CC)c2)c1	129 nM	–
CCc1cccc(NC(=N)Nc2cc(CC)cc(CC)c2Br)c1	29 nM	–
CCc1cccc(NC(=N)Nc2cc(Cl)ccc2Cl)c1	68 nM	–
CCc1cccc(NC(=N)Nc2cccc(Cl)c2)c1	112 nM	–
CCc1cccc(N(C)C(=N)Nc2ccccc2Cl)c1	386 nM	–
CCc1cccc(N(C)C(=N)Nc2cccc(Cl)c2)c1	497 nM	–
CCc1cccc(N(C)C(=N)Nc2ccccc2Br)c1	265 nM	–
CCc1cccc(N(C)C(=N)Nc2cccc(Cl)c2Cl)c1	116 nM	–
CCc1cccc(NC(=N)Nc2ccccc2C)c1	768 nM	–
CCc1cccc(N(C)C(N)=Nc2cccc3ccccc23)c1 [APTIGANEL HYDROCHLORIDE]	29 nM	2540 nM
